Experimental data from ChEMBL document CHEMBL4152348, “Discovery of a Potent and Orally Bioavailable Cyclophilin Inhibitor Derived from the Sanglifehrin Macrocycle” (J Med Chem, 2018).

Assays:
[1] = Apparent permeability across basolateral to apical side in human Caco2 cells measured at 60 to 120 mins by LC/MS/MS analysis; type: ADME, cell-based; settings: for Papp B→A: Caco-2, read-out: permeability; for permeability: Caco-2
[2] = Lipophilicity, log D of the compound at pH 7.4 after 30 mins by HPLC/UV analysis; type: physicochemical; settings: buffer
[3] = Apparent permeability across apical to basolateral side in human Caco2 cells measured at 60 to 120 mins by LC/MS/MS analysis; type: ADME, cell-based; settings: for Papp A→B: Caco-2, read-out: permeability; for permeability: Caco-2
[4] = Aqueous solubility of the compound at pH 7.2; type: physicochemical
[5] = Half life in dog plasma at 2 uM up to 4 hrs by LC/MS/MS analysis; type: ADME, cell-free, Canis lupus familiaris
[6] = Half life in human plasma at 2 uM up to 4 hrs by LC/MS/MS analysis; type: ADME, cell-free
[7] = Half life in rat plasma at 2 uM up to 4 hrs by LC/MS/MS analysis; type: ADME, cell-free
[8] = Oral bioavailability in Beagle dog at 5 mg/kg by HPLC/MS analysis; type: ADME, organism-based, Canis lupus familiaris; settings: in vivo
[9] = Clearance in Beagle dog at 1 mg/kg, iv or 5 mg/kg, po by HPLC/MS analysis; type: ADME, organism-based, Canis lupus familiaris; settings: in vivo
[10] = Clearance in Sprague-Dawley rat at 1 mg/kg, iv or 5 mg/kg, po by HPLC/MS analysis; type: ADME, organism-based; settings: in vivo
[11] = Volume of distribution at steady state in Beagle dog at 1 mg/kg, iv or 5 mg/kg, po by HPLC/MS analysis; type: ADME, organism-based, Canis lupus familiaris; settings: in vivo, read-out: Vdss
[12] = Oral bioavailability in Sprague-Dawley rat at 5 mg/kg by HPLC/MS analysis; type: ADME, organism-based; settings: in vivo
[13] = Terminal half life in Sprague-Dawley rat at 1 mg/kg, iv or 5 mg/kg, po by HPLC/MS analysis; type: ADME, organism-based; settings: in vivo, read-out: beta t1/2 (converted)
[14] = Terminal half life in Beagle dog at 1 mg/kg, iv or 5 mg/kg, po by HPLC/MS analysis; type: ADME, organism-based, Canis lupus familiaris; settings: in vivo, read-out: beta t1/2 (converted)
[15] = Volume of distribution at steady state in Sprague-Dawley rat at 1 mg/kg, iv or 5 mg/kg, po by HPLC/MS analysis; type: ADME, organism-based; settings: in vivo, read-out: Vdss
[16] = Oral bioavailability in Sprague-Dawley rat at 10 mg/kg by HPLC/MS analysis; type: ADME, organism-based; settings: in vivo
[17] = Terminal half life in Sprague-Dawley rat at 10 mg/kg, iv or 10 mg/kg, po by HPLC/MS analysis; type: ADME, organism-based; settings: in vivo, read-out: beta t1/2 (converted)
[18] = Volume of distribution at steady state in Sprague-Dawley rat at 10 mg/kg, iv or 10 mg/kg, po by HPLC/MS analysis; type: ADME, organism-based; settings: in vivo, read-out: Vdss
[19] = Clearance in Sprague-Dawley rat at 10 mg/kg, iv or 10 mg/kg, po by HPLC/MS analysis; type: ADME, organism-based; settings: in vivo

Structure (SMILES)	Papp B→A [1]	logD at 0.5 h [2]	Papp A→B [3]	half-life at 2 µM [5]	half-life at 2 µM [6]	half-life at 2 µM [7]	further results
CC(C)[C@@H]1OC(=O)C2(/C=C/c3ccc4ccc(nc4c3)[C@@H](C)NC(=O)[C@@H]3CCCN(N3)C(=O)[C@H](C)NC1=O)COCCOC2	10 ×10⁻⁶ cm/s	2.1	0.72 ×10⁻⁶ cm/s	–	–	–	–
CC(C)[C@@H]1NC(=O)C(C)(C)/C=C/c2cc3cc(ccc3cn2)[C@@H](C)OC(=O)[C@@H]2CCCN(N2)C(=O)[C@H](C)NC1=O	34 ×10⁻⁶ cm/s	2.1	2.3 ×10⁻⁶ cm/s	> 25 h	> 25 h	–	solubility [4]: < 6 µg/mL
CC(C)[C@@H]1NC(=O)C/C=C/c2ccc3ccc(cc3c2)[C@@H](C)OC(=O)[C@@H]2CCCN(N2)C(=O)[C@H](C)NC1=O	38 ×10⁻⁶ cm/s	2.5	6.2 ×10⁻⁶ cm/s	> 25 h	> 25 h	–	–
CC(C)[C@@H]1OC(=O)C2(/C=C/c3ccc4ccc(nc4c3)[C@@H](C)NC(=O)[C@@H]3CCCN(N3)C(=O)[C@H](C)NC1=O)CCOCC2	19 ×10⁻⁶ cm/s	2.4	3.2 ×10⁻⁶ cm/s	–	–	–	–
CC(C)[C@@H]1OC(=O)C(C)(C)/C=C/c2cc3cc(ccc3cn2)[C@@H](C)NC(=O)[C@@H]2CCCN(N2)C(=O)[C@H](C)NC1=O	7.9 ×10⁻⁶ cm/s	2	0.1 ×10⁻⁶ cm/s	12.2 h	> 25 h	9.4 h	–
CC(C)[C@@H]1NC(=O)CC/C=C/c2cc3cc(ccc3cn2)[C@@H](C)OC(=O)[C@@H]2CCCN(N2)C(=O)[C@H](C)NC1=O	25 ×10⁻⁶ cm/s	1.6	0.33 ×10⁻⁶ cm/s	> 25 h	> 25 h	0.133 h	–
CO[C@H]1C(=O)N[C@@H](C(C)C)C(=O)N[C@@H](C)C(=O)N2CCC[C@H](N2)C(=O)O[C@H](C)c2cccc(c2)/C=C/CC[C@H]1C	31 ×10⁻⁶ cm/s	2.9	12 ×10⁻⁶ cm/s	10 h	> 25 h	0.0833 h	–
CC(C)[C@@H]1NC(=O)C/C=C/c2cc3cc(ccc3cn2)[C@@H](C)OC(=O)[C@@H]2CCCN(N2)C(=O)[C@H](C)NC1=O	13 ×10⁻⁶ cm/s	1.1	0.32 ×10⁻⁶ cm/s	6.95 h	9.32 h	0.133 h	bioavailability [8]: 8%
CC(C)[C@@H]1NC(=O)C(C)(C)/C=C/c2ccc3ccc(nc3c2)[C@@H](C)OC(=O)[C@@H]2CCCN(N2)C(=O)[C@H](C)NC1=O	21 ×10⁻⁶ cm/s	2.7	2 ×10⁻⁶ cm/s	> 25 h	17.1 h	0.25 h	solubility [4]: < 6 µg/mL
CC(C)[C@@H]1OC(=O)C(CO)(CO)/C=C/c2ccc3ccc(nc3c2)[C@@H](C)NC(=O)[C@@H]2CCCN(N2)C(=O)[C@H](C)NC1=O	0.59 ×10⁻⁶ cm/s	1	0.08 ×10⁻⁶ cm/s	–	–	–	–
CO[C@H]1CC[C@@]2(/C=C/c3ccc4ccc(nc4c3)[C@@H](C)NC(=O)[C@@H]3CCCN(N3)C(=O)[C@H](C)NC(=O)[C@H](C(C)C)OC2=O)CC1	33 ×10⁻⁶ cm/s	3.1	13 ×10⁻⁶ cm/s	–	–	–	–
CC(C)[C@@H]1OC(=O)C(C)(C)/C=C/c2ccc3ccc(nc3c2)[C@@H](C)NC(=O)[C@@H]2CCCN(N2)C(=O)[C@H](C)NC1=O	–	3.2	–	> 25 h	> 25 h	6.87 h	permeability [1]: 47 ×10⁻⁶ cm/s; clearance [9]: 6 mL/min/kg; clearance [10]: 10.8 mL/min/kg; Vd [11]: 3.9 L/kg; permeability [3]: 17 ×10⁻⁶ cm/s; bioavailability [12]: 90%; bioavailability [8]: 100%; half-life [13]: 3.9 h; half-life [14]: 10 h; Vd [15]: 2.5 L/kg
CO[C@@H]1/C=C/c2cc3cc(ccc3cn2)[C@@H](C)OC(=O)[C@@H]2CCCN(N2)C(=O)[C@H](C)NC(=O)[C@H](C(C)C)NC(=O)[C@@H]1C	37 ×10⁻⁶ cm/s	2.1	4.4 ×10⁻⁶ cm/s	17.4 h	12.5 h	0.0833 h	–
CC(C)[C@@H]1NC(=O)C/C=C/c2ccc3ccc(nc3c2)[C@@H](C)OC(=O)[C@@H]2CCCN(N2)C(=O)[C@H](C)NC1=O	3.5 ×10⁻⁶ cm/s	2.1	1.2 ×10⁻⁶ cm/s	> 25 h	8.87 h	–	–
CC(C)[C@@H]1OC(=O)C2(/C=C/c3ccc4ccc(nc4c3)[C@@H](C)NC(=O)[C@@H]3CCCN(N3)C(=O)[C@H](C)NC1=O)CCS(=O)(=O)CC2	12 ×10⁻⁶ cm/s	1.9	0.48 ×10⁻⁶ cm/s	–	–	–	–
CC(C)[C@@H]1OC(=O)C2(/C=C/c3ccc4ccc(nc4c3)[C@@H](C)NC(=O)[C@@H]3CCCN(N3)C(=O)[C@H](C)NC1=O)COCOC2	13 ×10⁻⁶ cm/s	2.2	1.5 ×10⁻⁶ cm/s	> 25 h	> 25 h	> 25 h	clearance [9]: 1.33 mL/min/kg; bioavailability [16]: 100%; Vd [11]: 2.3 L/kg; half-life [17]: 24 h; Vd [18]: 12 L/kg; clearance [19]: 7 mL/min/kg; bioavailability [8]: 55%; half-life [14]: 25 h
CC(C)[C@@H]1OC(=O)C2(/C=C/c3ccc4ccc(nc4c3)[C@@H](C)NC(=O)[C@@H]3CCCN(N3)C(=O)[C@H](C)NC1=O)CCC(O)CC2 (stereo in doubt; 47)	9.2 ×10⁻⁶ cm/s	1.9	0.61 ×10⁻⁶ cm/s	–	–	–	–
CC(C)[C@@H]1OC(=O)C2(/C=C/c3ccc4ccc(nc4c3)[C@@H](C)NC(=O)[C@@H]3CCCN(N3)C(=O)[C@H](C)NC1=O)CCC(O)CC2 (stereo in doubt; 48)	–	–	–	–	–	–	permeability [1]: 7.1 ×10⁻⁶ cm/s; permeability [3]: 0.9 ×10⁻⁶ cm/s
